Data from patent US20230048678A1, “ICAN DERIVATIVES FOR ANTIFUNGAL USE” (DEBRECENI EGYETEM, priority 2019, published 2023).

What was measured:
[1] = test system: C. parapsilosis isolates; assay: CLSI M27-A3 broth microdilution on Candida isolates (Table 2); type: cell-based
Description: (§1) The tested C. albicans, C. tropicalis, C. parapsilosis, C. glabrata and C. krusei ATCC strains and clinical isolates are listed in Table 2. MICs were determined according to the CLSI M27-A3 [22]. Antifungal agents were dissolved in 100% DMSO and diluted further in RPMI-1640 (with L-glutamine but without bicarbonate) (Sigma, Budapest, Hungary), and buffered to pH 7.0 with 0.165 M morpholinopropanesulfonic acid (MOPS; Sigma, Budapest, Hungary). The final concentration ranges used for AMB and ICAN derivatives were 0.125 to 4 μg/ml and 0.04 to 20 μg/ml, respectively. Yeast cell suspensions were prepared in RPMI 1640 medium and were adjusted to give a final inoculum concentration of 0.5×10^3 to 2.5×10^3 cells/ml. MICs were read visually after 48-h incubation at 35° C. using the partial (50%) inhibition (for ICAN derivatives) (PI) and total inhibition (for AMB and ICAN derivatives) (TI) criteria. MICs were determined at least twice. For amphotericin B isolates with MIC values of ≤2 mg/L were considered wild-types. [Pfaller M A, 2012]

[2] = test system: C. glabrata isolates; assay: as above; type: cell-based
Description: as §1

[C-]#[N+]c1cccc2c(N(C)C)cccc12 [DIMICAN, N,N-dimethyl-1-amino-5-isocyanonaphthalene]
MICPI ([1]; isolate 4133): 0.08 µg/mL
MICTI ([1]; isolate 4133): 0.08 µg/mL
MICPI ([1]; isolate 9613): 0.15 µg/mL
MICTI ([1]; isolate 9613): 0.15 µg/mL
MICPI ([1]; isolate 10252): ≤0.04 µg/mL
MICTI ([1]; isolate 10252): 0.08 µg/mL
MICPI ([1]; isolate 18154): 0.08 µg/mL
MICTI ([1]; isolate 18154): 0.6 µg/mL
MICPI ([1]; isolate 27001): ≤0.04 µg/mL
MICTI ([1]; isolate 27001): 0.3 µg/mL
MICPI ([1]; isolate ATCC 22019): 0.15 µg/mL
MICTI ([1]; isolate ATCC 22019): 0.6 µg/mL
MICPI ([2]; isolate 14408): ≤0.04 µg/mL
MICTI ([2]; isolate 14408): 0.08 µg/mL
MICPI ([2]; isolate 14559): ≤0.04 µg/mL
MICTI ([2]; isolate 14559): 0.3 µg/mL
MICPI ([2]; isolate 22394): ≤0.04 µg/mL
MICTI ([2]; isolate 22394): 0.3 µg/mL
MICPI ([2]; isolate 23429): ≤0.04 µg/mL
MICTI ([2]; isolate 23429): 0.3 µg/mL
MICPI ([2]; isolate 23481): 0.08 µg/mL
MICTI ([2]; isolate 23481): 1.25 µg/mL
MICPI ([2]; isolate 27643): 0.08 µg/mL
MICTI ([2]; isolate 27643): 0.3 µg/mL
MICPI ([2]; isolate 28557): ≤0.04 µg/mL
MICTI ([2]; isolate 28557): 0.6 µg/mL
MICPI ([2]; isolate ATCC 90030): 0.15 µg/mL
MICTI ([2]; isolate ATCC 90030): 0.3 µg/mL
